Experimental data taken from patent publication US6943151B2, “Method of inhibiting bone resorption and/or promoting bone formation using GLP-2 and related compounds” (Sanos Bioscience A/S, priority 2000, dated 2005).

Assays:
S-CTX (bone resorption) = assay: Serum C-telopeptide fragments of collagen type I degradation (S-CTX) by serum CrossLaps ELISA, marker of bone resorption, after administration to human subjects; format: in vivo
Method: In these Examples Haematology and serum chemistry including glucose were measured using an auto analyser (Vitros). Serum FSH was measured by IRMA (Coat-A-Count®, DPC, Los Angeles, Calif.). Serum C-telopeptide fragments of collagen type I degradation (S-CTX) were measured by ELISA, serum CrossLaps™ assay (Osteometer BioTech A/S—Denmark). Serum osteocalcin was determined by ELISA, an assay which determines the N-terminal mid segment of the molecule. Serum insulin and c-peptide were both assessed by RIA (Coat-A-Count® for insulin and Double Antibody C-peptide for c-peptide both DPC, Los Angeles, Calif.).
12 healthy women and men between 30-45, respectively 30-60, were included in a randomised, controlled cross over study comparing the effects of oral fructose on GLP-1, on GIP and on bone turnover. The individuals had not suffered diseases suspected to affect bone turnover such as cancer, rheumatoid arthritis or diseases compromising absorption from the gut or excretion/re-absorption from the kidney nor had they a history of serious diseases, which might influence the conduct of the study. A general laboratory screening including haematology and serum chemistry gave no indication of specific organ dysfunction. […]

GLP-1 = assay: Level of GLP-1 in blood after oral nutrient intake; format: in vivo, human; conditions: after 2 hours; oral 75 g fructose; healthy women and men
Excerpt: (§1) 12 healthy women and men between 30-45, respectively 30-60, were included in a randomised, controlled cross over study comparing the effects of oral fructose on GLP-1, on GIP and on bone turnover. The individuals had not suffered diseases suspected to affect bone turnover such as cancer, rheumatoid arthritis or diseases compromising absorption from the gut or excretion/re-absorption from the kidney nor had they a history of serious diseases, which might influence the conduct of the study. A general laboratory screening including haematology and serum chemistry gave no indication of specific organ dysfunction. The individuals were not under influence of bone active medication, thus more than 3 months had passed since previous treatment with calcium, vitamin D, oestrogen or progestin in any administration form and the individuals had never been treated with bisphosphonates or fluoride.
After fasting from 10 p.m. the evening prior to an experiment, blood samples were collected between 7:30 a.m. and 8:30 a.m. Immediately thereafter oral fructose were initiated. […]
The normal mixed meal consisted of rye bread, toast, butter, cheese, jam, yoghurt, banana, and orange juice (total weight 755 g), with an energy content of 3.92 MJ and a protein:carbohydrate:fat energy ratio of 10%:52%:37% evaluated from food tables.

GIP = assay: Level of GIP in blood after oral nutrient intake; format: in vivo, human; conditions: oral 75 g fructose; healthy women and men; result in words
Excerpt: as §1
After fasting from 10 p.m. the evening prior to an experiment, blood samples were collected between 7:30 a.m. and 8:30 a.m. Immediately thereafter oral fructose were initiated. At precisely 1, 2, 3, 6 and 9 hours after the first blood sample, blood samples were collected. A washout period of 2 weeks was instituted between each experiment.
Oral fructose consisted of 75 g fructose dissolved in 300 ml water with juice of a half lemon added. […]

[1] = Level of GLP-2 in blood after subcutaneous GLP-2 injection; format: in vivo; conditions: subcutaneous bolus injection of 400 μg synthetic human GLP-2; healthy women and men
Excerpt: 6 healthy women and 3 healthy men between 24-53 were included in a study comparing the effect of a GLP-2 injection on GLP-2intact and on bone turnover.
The description of the methodology of measurement of GLP-2intact and total GLP-2 and the description of the test persons was as described in detail in Hartmann, B. et al., J Clin Endocrinol Metab 2000; 85 (8):2884-2888.
Blood samples were drawn at regular intervals before, during, and after the injection.
The test persons received a subcutaneous bolus injection of 400 μg synthetic human GLP-2.

Compound: O=C(CO)[C@@H](O)[C@H](O)[C@H](O)CO [fructose]
- reduction in S-CTX (S-CTX (bone resorption); after 2 hours, oral intake after overnight fast, 12 healthy women and men): 36%
- occurrence (level) of GLP-1 compared to the baseline of 100% at To (GLP-1): 220%
- level of GIP (GIP): almost maintained at the baseline

Compound: GLP-2: synthetic human GLP-2, 33 amino acid peptide fragment of proglucagon (126-158)
- reduction in S-CTX (S-CTX (bone resorption); after 3 hours, subcutaneous bolus injection of 400 μg, 6 healthy women and 3 healthy men): 33%
- time to peak level of GLP-2 after the injection [1]: 1 h
